PubChem BioAssay AID256 (DTP/NCI, 2004)
Values joined by “and” are separate entries in the source; they are usually repeats but may differ in a detail not shown here. Identical values can stand only once. Inconclusive results and toxic doses are left out.

Tested on: CD2F1 mice, L1210 leukemia ip, survival T/C
Assay: NCI In Vivo Anticancer Drug Screen. Data for tumor model L1210 Leukemia (intraperitoneal) in CD2F1 (CDF1) mice
Conditions: higher = longer survival
In short: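 Tumor-bearing mice (transplanted tumor) were split into treated and vehicle control groups, and the measured endpoint of each treated group was divided by that of its vehicle controls.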

[1] = endpoint: mean survival time, dose: 100.0 mg/kg/injection, schedule: Q01DX001 (ip), vehicle: saline
[2] = endpoint: mean survival time, dose: 200.0 mg/kg/injection, schedule: Q01DX001 (ip), vehicle: saline
[3] = endpoint: mean survival time, dose: 100.0 mg/kg/injection, schedule: Q01DX009 (ip), vehicle: saline
[4] = endpoint: median survival time, dose: 100.0 mg/kg/injection, schedule: Q01DX005 (ip), vehicle: saline
[5] = endpoint: mean survival time, dose: 75.0 mg/kg/injection, schedule: Q01DX001 (ip), vehicle: saline
[6] = endpoint: mean survival time, dose: 100.0 mg/kg/injection, schedule: Q01DX009 (ip), vehicle: saline with Tween-80
[7] = endpoint: mean survival time, dose: 200.0 mg/kg/injection, schedule: Q01DX009 (ip), vehicle: saline with Tween-80
[8] = endpoint: mean survival time, dose: 400.0 mg/kg/injection, schedule: Q01DX009 (ip), vehicle: saline with Tween-80
[9] = endpoint: mean survival time, dose: 100.0 mg/kg/injection, schedule: Q04DX002 (ip), vehicle: saline with Tween-80
[10] = endpoint: mean survival time, dose: 200.0 mg/kg/injection, schedule: Q04DX002 (ip), vehicle: saline with Tween-80
[11] = endpoint: mean survival time, dose: 400.0 mg/kg/injection, schedule: Q04DX002 (ip), vehicle: saline with Tween-80
[12] = endpoint: mean survival time, dose: 100.0 mg/kg/injection, schedule: Q04DX003 (ip), vehicle: saline with Tween-80
[13] = endpoint: mean survival time, dose: 200.0 mg/kg/injection, schedule: Q04DX003 (ip), vehicle: saline with Tween-80
[14] = endpoint: mean survival time, dose: 400.0 mg/kg/injection, schedule: Q04DX003 (ip), vehicle: saline with Tween-80
[15] = endpoint: mean survival time, dose: 100.0 mg/kg/injection, schedule: Q01DX001 (ip), vehicle: saline with Tween-80
[16] = endpoint: mean survival time, dose: 200.0 mg/kg/injection, schedule: Q01DX001 (ip), vehicle: saline with Tween-80
[17] = endpoint: mean survival time, dose: 400.0 mg/kg/injection, schedule: Q01DX001 (ip), vehicle: saline with Tween-80

## CC12OC3(C)C4CC1C1(C)OC4(C)C3C(O)C21 (stereo unspecified)
[1]
  T/C: 97 % of control
endpoint: mean survival time, dose: 100.0 mg/kg/injection, schedule: Q04DX003 (ip), vehicle: saline
  T/C: 105 % of control
[2]
  T/C: 97 % of control
endpoint: mean survival time, dose: 200.0 mg/kg/injection, schedule: Q04DX003 (ip), vehicle: saline
  T/C: 102 % of control
endpoint: mean survival time, dose: 400.0 mg/kg/injection, schedule: Q01DX001 (ip), vehicle: saline
  T/C: 100 % of control
endpoint: mean survival time, dose: 400.0 mg/kg/injection, schedule: Q04DX003 (ip), vehicle: saline
  T/C: 96 % of control

## CC(=O)N(C)c1ccc(Nc2cc(C)[nH]c3ccc4ncnc4c23)cc1
endpoint: mean survival time, dose: 6.25 mg/kg/injection, schedule: Q01DX009 (ip), vehicle: saline
  T/C: 114 % of control and 110 % of control
endpoint: mean survival time, dose: 12.5 mg/kg/injection, schedule: Q01DX009 (ip), vehicle: saline
  T/C: 120 % of control and 110 % of control
endpoint: mean survival time, dose: 25.0 mg/kg/injection, schedule: Q01DX009 (ip), vehicle: saline
  T/C: 118 % of control and 121 % of control
endpoint: mean survival time, dose: 50.0 mg/kg/injection, schedule: Q01DX009 (ip), vehicle: saline
  T/C: 119 % of control
[3]
  T/C: 113 % of control and 100 % of control
endpoint: median survival time, dose: 67.0 mg/kg/injection, schedule: Q01DX005 (ip), vehicle: saline
  T/C: 156 % of control and 164 % of control
[4]
  T/C: 160 % of control

## O=C(COc1cccc(Cl)c1)NCc1ccccc1NC(=O)CBr
endpoint: mean survival time, dose: 2.35 mg/kg/injection, schedule: Q01DX001 (ip), vehicle: saline with Tween-80
  T/C: 101 % of control
endpoint: mean survival time, dose: 4.7 mg/kg/injection, schedule: Q01DX001 (ip), vehicle: saline with Tween-80
  T/C: 97 % of control
endpoint: mean survival time, dose: 9.4 mg/kg/injection, schedule: Q01DX001 (ip), vehicle: saline with Tween-80
  T/C: 92 % of control

## CN(C)C(=C1C=CC=C1)N(C)C
[5]
  T/C: 95 % of control

## N/C(=N/O)NO
endpoint: median survival time, dose: 50.0 mg/kg/injection, schedule: Q01DX005 (ip), vehicle: saline
  T/C: 109 % of control
[4]
  T/C: 110 % of control and 112 % of control
endpoint: median survival time, dose: 200.0 mg/kg/injection, schedule: Q01DX005 (ip), vehicle: saline
  T/C: 120 % of control and 123 % of control

## CCCCCCCCCCCCSS(=O)(=O)c1ccc(C)cc1
endpoint: mean survival time, dose: 100.0 mg/kg/injection, schedule: Q04DX003 (ip), vehicle: other
  T/C: 95 % of control
endpoint: mean survival time, dose: 200.0 mg/kg/injection, schedule: Q04DX003 (ip), vehicle: other
  T/C: 95 % of control
endpoint: mean survival time, dose: 400.0 mg/kg/injection, schedule: Q04DX003 (ip), vehicle: other
  T/C: 95 % of control

## COC(=O)c1ccc(C)c(O)c1[N+](=O)[O-]
[6]
  T/C: 100 % of control
[7]
  T/C: 96 % of control
[8]
  T/C: 101 % of control

## CN(Cc1ccc(Cl)cc1)N=Nc1ccc(C#N)cc1
[6]
  T/C: 98 % of control
[7]
  T/C: 107 % of control
[8]
  T/C: 93 % of control

## C[S+](C)CCC(N)C(=O)O (stereo unspecified)
endpoint: median survival time, dose: 3.13 mg/kg/injection, schedule: Q04DX002 (ip), vehicle: saline
  T/C: 105 % of control
endpoint: median survival time, dose: 6.25 mg/kg/injection, schedule: Q04DX002 (ip), vehicle: saline
  T/C: 105 % of control
endpoint: median survival time, dose: 12.5 mg/kg/injection, schedule: Q04DX002 (ip), vehicle: saline
  T/C: 108 % of control
endpoint: median survival time, dose: 25.0 mg/kg/injection, schedule: Q04DX002 (ip), vehicle: saline
  T/C: 100 % of control
endpoint: median survival time, dose: 50.0 mg/kg/injection, schedule: Q04DX002 (ip), vehicle: saline
  T/C: 117 % of control

## CN(C)/C=C\C(=O)O
[9]
  T/C: 102 % of control
[10]
  T/C: 102 % of control
[11]
  T/C: 98 % of control

## CCCC1(CC(C)CC)C(=O)NC(=O)NC1=O (stereo unspecified) (tested in a mixture with another compound)
[5]
  T/C: 93 % of control
endpoint: mean survival time, dose: 150.0 mg/kg/injection, schedule: Q01DX001 (ip), vehicle: saline
  T/C: 100 % of control
endpoint: mean survival time, dose: 300.0 mg/kg/injection, schedule: Q01DX001 (ip), vehicle: saline
  T/C: 104 % of control

## NC(=O)C(CCCCC(C(N)=O)C(N)=O)C(N)=O
[9]
  T/C: 96 % of control
[10]
  T/C: 108 % of control
[11]
  T/C: 108 % of control

## COC(=O)CCC(=O)N1C=Cc2ccccc2C1C#N (stereo unspecified)
[6]
  T/C: 98 % of control
[12]
  T/C: 95 % of control
[7]
  T/C: 102 % of control
[13]
  T/C: 95 % of control
[8]
  T/C: 102 % of control
[14]
  T/C: 90 % of control

## Cc1ccc(NC(=O)CCl)cc1Cl
endpoint: mean survival time, dose: 50.0 mg/kg/injection, schedule: Q01DX009 (ip), vehicle: saline with Tween-80
  T/C: 95 % of control
[6]
  T/C: 90 % of control
[12]
  T/C: 98 % of control
[13]
  T/C: 89 % of control

## CC1CC(C)(C)NC(CCC2CCCCC23OCCO3)O1 (stereo unspecified)
[15]
  T/C: 107 % of control
[16]
  T/C: 105 % of control
[17]
  T/C: 97 % of control

## COc1cc(Cl)ccc1NC(=O)Nc1cccc(Cl)c1
[9]
  T/C: 88 % of control
[10]
  T/C: 95 % of control
[11]
  T/C: 95 % of control

## CC(=O)NC/C(C)=N/Nc1ccc([N+](=O)[O-])cc1[N+](=O)[O-]
endpoint: mean survival time, dose: 25.0 mg/kg/injection, schedule: Q04DX003 (ip), vehicle: saline with Tween-80
  T/C: 93 % of control
endpoint: mean survival time, dose: 50.0 mg/kg/injection, schedule: Q04DX003 (ip), vehicle: saline with Tween-80
  T/C: 87 % of control
[12]
  T/C: 91 % of control

## N#Cc1cn(C2OC(CO)C(O)C2O)c2ncn(N)c(=N)c12 (stereo unspecified)
endpoint: mean survival time, dose: 25.0 mg/kg/injection, schedule: Q01DX005 (ip), vehicle: water
  T/C: 110 % of control
endpoint: mean survival time, dose: 50.0 mg/kg/injection, schedule: Q01DX005 (ip), vehicle: water
  T/C: 111 % of control
endpoint: mean survival time, dose: 100.0 mg/kg/injection, schedule: Q01DX005 (ip), vehicle: water
  T/C: 118 % of control

## N#CCCCSc1ccccc1
[1]
  T/C: 96 % of control
[2]
  T/C: 106 % of control

## CC1=CC(=O)OC(C)(C)C1
[3]
  T/C: 97 % of control
endpoint: mean survival time, dose: 200.0 mg/kg/injection, schedule: Q01DX009 (ip), vehicle: saline
  T/C: 96 % of control
endpoint: mean survival time, dose: 400.0 mg/kg/injection, schedule: Q01DX009 (ip), vehicle: saline
  T/C: 114 % of control

## CCCCCCCCCCCCCCn1cnc2ncnc(Cl)c21
endpoint: mean survival time, dose: 6.25 mg/kg/injection, schedule: Q01DX005 (ip), vehicle: distilled water + Tween-80
  T/C: 100 % of control
endpoint: mean survival time, dose: 12.5 mg/kg/injection, schedule: Q01DX005 (ip), vehicle: distilled water + Tween-80
  T/C: 100 % of control
endpoint: mean survival time, dose: 25.0 mg/kg/injection, schedule: Q01DX005 (ip), vehicle: distilled water + Tween-80
  T/C: 93 % of control
endpoint: mean survival time, dose: 50.0 mg/kg/injection, schedule: Q01DX005 (ip), vehicle: distilled water + Tween-80
  T/C: 90 % of control
endpoint: mean survival time, dose: 100.0 mg/kg/injection, schedule: Q01DX005 (ip), vehicle: distilled water + Tween-80
  T/C: 91 % of control

## O=C(O)/C=C(/Br)C(=O)O
[1]
  T/C: 97 % of control
[2]
  T/C: 108 % of control

## Cn1cnc2c(SCc3ccccc3)ncnc21
[12]
  T/C: 104 % of control
endpoint: mean survival time, dose: 132.0 mg/kg/injection, schedule: Q04DX003 (ip), vehicle: saline with Tween-80
  T/C: 118 % of control
[13]
  T/C: 102 % of control
endpoint: mean survival time, dose: 300.0 mg/kg/injection, schedule: Q04DX003 (ip), vehicle: saline with Tween-80
  T/C: 119 % of control

## CCC(/C=C/C(C)C1CCC2C3CC=C4CC(O)CCC4(C)C3CCC12C)C(C)C (stereo unspecified) (tested in a mixture with another compound)
endpoint: mean survival time, dose: 12.5 mg/kg/injection, schedule: Q01DX001 (ip), vehicle: water
  T/C: 97 % of control
endpoint: mean survival time, dose: 12.5 mg/kg/injection, schedule: Q01DX009 (ip), vehicle: water
  T/C: 100 % of control
endpoint: mean survival time, dose: 25.0 mg/kg/injection, schedule: Q01DX001 (ip), vehicle: water
  T/C: 97 % of control
endpoint: mean survival time, dose: 25.0 mg/kg/injection, schedule: Q01DX009 (ip), vehicle: other
  T/C: 94 % of control
endpoint: mean survival time, dose: 25.0 mg/kg/injection, schedule: Q01DX009 (ip), vehicle: water
  T/C: 103 % of control
endpoint: mean survival time, dose: 50.0 mg/kg/injection, schedule: Q01DX001 (ip), vehicle: water
  T/C: 102 % of control
endpoint: mean survival time, dose: 50.0 mg/kg/injection, schedule: Q01DX009 (ip), vehicle: other
  T/C: 91 % of control
endpoint: mean survival time, dose: 50.0 mg/kg/injection, schedule: Q01DX009 (ip), vehicle: water
  T/C: 96 % of control
[6]
  T/C: 94 % of control
[7]
  T/C: 89 % of control

## O=C(O)c1ccc(NC(=S)NC(=O)c2cccc(Br)c2)cc1
[15]
  T/C: 97 % of control
[6]
  T/C: 95 % of control and 97 % of control
[9]
  T/C: 95 % of control
[12]
  T/C: 100 % of control
[16]
  T/C: 88 % of control and 101 % of control
[7]
  T/C: 95 % of control and 101 % of control
[10]
  T/C: 94 % of control and 103 % of control
[13]
  T/C: 90 % of control
[17]
  T/C: 92 % of control and 95 % of control
[8]
  T/C: 86 % of control
[11]
  T/C: 97 % of control and 106 % of control
[14]
  T/C: 93 % of control

## COC(=O)/C=C(\C)C(=O)OC
[6]
  T/C: 100 % of control
[7]
  T/C: 94 % of control
[8]
  T/C: 96 % of control
